Measurements as given in PubChem BioAssay (NCI).
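1) Cells in 96-well plates. 2) Compound, 48 h, 5 concentrations. 3) Linear interpolation between surrounding doses. 4) Unreached endpoint = highest concentration. TGI denotes the concentration required for complete inhibition of growth.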

How the values were obtained:
Experiment in all cases: NCI tumour cell line growth inhibition, 48 h
SNB-19 CNS = tested on: SNB-19 CNS
IGROV1 ovarian = tested on: IGROV1 ovarian
SK-MEL-5 melanoma = tested on: SK-MEL-5 melanoma
KM12 colon = tested on: KM12 colon
HL-60(TB) leukemia = tested on: HL-60(TB) leukemia
M14 melanoma = tested on: M14 melanoma
CCRF-CEM leukemia = tested on: CCRF-CEM leukemia
SN12C renal = tested on: SN12C renal
OVCAR-8 ovarian = tested on: OVCAR-8 ovarian
XF 498 CNS = tested on: XF 498 CNS
KM20L2 colon = tested on: KM20L2 colon
SNB-78 CNS = tested on: SNB-78 CNS
DMS 273 small cell lung = tested on: DMS 273 small cell lung
LXFL 529 NSCLC = tested on: LXFL 529 NSCLC
OVCAR-5 ovarian = tested on: OVCAR-5 ovarian
RPMI-8226 leukemia = tested on: RPMI-8226 leukemia
COLO 205 colon = tested on: COLO 205 colon
ACHN renal = tested on: ACHN renal
NCI-H460 lung = tested on: NCI-H460 lung
HOP-62 NSCLC = tested on: HOP-62 NSCLC
U251 CNS = tested on: U251 CNS
SF-539 CNS = tested on: SF-539 CNS
UACC-257 melanoma = tested on: UACC-257 melanoma
HCC-2998 colon = tested on: HCC-2998 colon
EKVX NSCLC = tested on: EKVX NSCLC
UACC-62 melanoma = tested on: UACC-62 melanoma
SF-268 CNS = tested on: SF-268 CNS
DMS 114 small cell lung = tested on: DMS 114 small cell lung
DLD-1 colon = tested on: DLD-1 colon
SR leukemia = tested on: SR leukemia
RXF 393 renal = tested on: RXF 393 renal
LOX IMVI melanoma = tested on: LOX IMVI melanoma
786-0 renal = tested on: 786-0 renal
HT29 colon = tested on: HT29 colon
SF-295 CNS = tested on: SF-295 CNS
HOP-18 NSCLC = tested on: HOP-18 NSCLC
HCT-116 colon = tested on: HCT-116 colon
SK-MEL-28 melanoma = tested on: SK-MEL-28 melanoma
OVCAR-4 ovarian = tested on: OVCAR-4 ovarian
A498 renal = tested on: A498 renal
MALME-3M melanoma = tested on: MALME-3M melanoma
TK-10 renal = tested on: TK-10 renal
HCT-15 colon = tested on: HCT-15 colon
HOP-92 NSCLC = tested on: HOP-92 NSCLC
M19-MEL melanoma = tested on: M19-MEL melanoma
OVCAR-3 ovarian = tested on: OVCAR-3 ovarian
MOLT-4 leukemia = tested on: MOLT-4 leukemia
NCI-H226 lung = tested on: NCI-H226 lung
NCI-H23 lung = tested on: NCI-H23 lung
SNB-75 CNS = tested on: SNB-75 CNS
K-562 leukemia = tested on: K-562 leukemia
SW-620 colon = tested on: SW-620 colon
SK-MEL-2 melanoma = tested on: SK-MEL-2 melanoma
A549 NSCLC = tested on: A549 NSCLC
SK-OV-3 ovarian = tested on: SK-OV-3 ovarian
UO-31 renal = tested on: UO-31 renal
RXF-631 renal = tested on: RXF-631 renal
CAKI-1 renal = tested on: CAKI-1 renal
NCI-H522 lung = tested on: NCI-H522 lung

Compound: N#CCN1C(=O)c2cccc3cc([N+](=O)[O-])cc(c23)C1=O
- TGI (SNB-19 CNS): > 100 µM
- TGI (IGROV1 ovarian): > 100 µM
- TGI (SK-MEL-5 melanoma): > 100 µM
- TGI (KM12 colon): > 100 µM
- TGI (HL-60(TB) leukemia): 56.4 µM
- TGI (M14 melanoma): > 100 µM
- TGI (CCRF-CEM leukemia): > 100 µM
- TGI (SN12C renal): > 100 µM
- TGI (OVCAR-8 ovarian): > 100 µM
- TGI (XF 498 CNS): 68.3 µM
- TGI (KM20L2 colon): > 100 µM
- TGI (SNB-78 CNS): > 100 µM
- TGI (DMS 273 small cell lung): > 100 µM
- TGI (LXFL 529 NSCLC): > 100 µM
- TGI (OVCAR-5 ovarian): > 100 µM
- TGI (RPMI-8226 leukemia): > 100 µM
- TGI (COLO 205 colon): > 100 µM
- TGI (ACHN renal): > 100 µM
- TGI (NCI-H460 lung): > 100 µM
- TGI (HOP-62 NSCLC): > 100 µM
- TGI (U251 CNS): > 100 µM
- TGI (SF-539 CNS): > 100 µM
- TGI (UACC-257 melanoma): 83.1 µM
- TGI (HCC-2998 colon): > 100 µM
- TGI (EKVX NSCLC): > 100 µM
- TGI (UACC-62 melanoma): 60.5 µM
- TGI (SF-268 CNS): > 100 µM
- TGI (DMS 114 small cell lung): > 100 µM
- TGI (DLD-1 colon): > 100 µM
- TGI (SR leukemia): 41.8 µM
- TGI (RXF 393 renal): > 100 µM
- TGI (LOX IMVI melanoma): 66.8 µM
- TGI (786-0 renal): > 100 µM
- TGI (HT29 colon): > 100 µM
- TGI (SF-295 CNS): > 100 µM
- TGI (HOP-18 NSCLC): > 100 µM
- TGI (HCT-116 colon): > 100 µM
- TGI (SK-MEL-28 melanoma): > 100 µM
- TGI (OVCAR-4 ovarian): > 100 µM
- TGI (A498 renal): > 100 µM
- TGI (MALME-3M melanoma): 92.7 µM
- TGI (TK-10 renal): 95.6 µM
- TGI (HCT-15 colon): > 100 µM
- TGI (HOP-92 NSCLC): > 100 µM
- TGI (M19-MEL melanoma): 44.5 µM
- TGI (OVCAR-3 ovarian): 88.6 µM
- TGI (MOLT-4 leukemia): > 100 µM
- TGI (NCI-H226 lung): 62.4 µM
- TGI (NCI-H23 lung): > 100 µM
- TGI (SNB-75 CNS): > 100 µM
- TGI (K-562 leukemia): > 100 µM
- TGI (SW-620 colon): > 100 µM
- TGI (SK-MEL-2 melanoma): 22.2 µM
- TGI (A549 NSCLC): > 100 µM
- TGI (SK-OV-3 ovarian): > 100 µM
- TGI (UO-31 renal): > 100 µM

Compound: CC(C)(C)c1ccc2c(c1)S(=O)(=O)Nc1ccccc1NS(=O)(=O)c1cc(C(C)(C)C)ccc1OCCOCCOCCO2
- TGI (SNB-19 CNS): > 100 µM
- TGI (IGROV1 ovarian): > 100 µM
- TGI (SK-MEL-5 melanoma): > 100 µM
- TGI (KM12 colon): > 100 µM
- TGI (HL-60(TB) leukemia): > 100 µM
- TGI (M14 melanoma): > 100 µM
- TGI (CCRF-CEM leukemia): > 100 µM
- TGI (SN12C renal): > 100 µM
- TGI (OVCAR-8 ovarian): > 100 µM
- TGI (SNB-78 CNS): > 100 µM
- TGI (DMS 273 small cell lung): > 100 µM
- TGI (OVCAR-5 ovarian): > 100 µM
- TGI (COLO 205 colon): > 100 µM
- TGI (ACHN renal): > 100 µM
- TGI (NCI-H460 lung): > 100 µM
- TGI (HOP-62 NSCLC): > 100 µM
- TGI (U251 CNS): > 100 µM
- TGI (SF-539 CNS): > 100 µM
- TGI (UACC-257 melanoma): > 100 µM
- TGI (HCC-2998 colon): > 100 µM
- TGI (EKVX NSCLC): > 100 µM
- TGI (UACC-62 melanoma): > 100 µM
- TGI (SF-268 CNS): > 100 µM
- TGI (RXF-631 renal): > 100 µM
- TGI (DMS 114 small cell lung): > 100 µM
- TGI (CAKI-1 renal): > 100 µM
- TGI (DLD-1 colon): > 100 µM
- TGI (RXF 393 renal): > 100 µM
- TGI (LOX IMVI melanoma): > 100 µM
- TGI (786-0 renal): > 100 µM
- TGI (HT29 colon): > 100 µM
- TGI (SF-295 CNS): > 100 µM
- TGI (HOP-18 NSCLC): > 100 µM
- TGI (HCT-116 colon): > 100 µM
- TGI (SK-MEL-28 melanoma): > 100 µM
- TGI (OVCAR-4 ovarian): 48 µM
- TGI (A498 renal): > 100 µM
- TGI (MALME-3M melanoma): 97 µM
- TGI (TK-10 renal): > 100 µM
- TGI (HCT-15 colon): > 100 µM
- TGI (HOP-92 NSCLC): > 100 µM
- TGI (M19-MEL melanoma): > 100 µM
- TGI (OVCAR-3 ovarian): > 100 µM
- TGI (MOLT-4 leukemia): > 100 µM
- TGI (NCI-H226 lung): > 100 µM
- TGI (NCI-H23 lung): > 100 µM
- TGI (SNB-75 CNS): > 100 µM
- TGI (K-562 leukemia): > 100 µM
- TGI (SW-620 colon): > 100 µM
- TGI (SK-MEL-2 melanoma): > 100 µM
- TGI (A549 NSCLC): > 100 µM
- TGI (SK-OV-3 ovarian): > 100 µM
- TGI (UO-31 renal): > 100 µM

Compound: Cc1cccc(NC(=O)C(=O)C(C(=O)c2ccc3ccccc3c2)C2OC(=O)c3ccccc32)c1C (stereo not given)
- TGI (SNB-19 CNS): 25.4 µM
- TGI (IGROV1 ovarian): 57.7 µM
- TGI (SK-MEL-5 melanoma): 25.9 µM
- TGI (KM12 colon): 51.7 µM
- TGI (HL-60(TB) leukemia): 68.5 µM
- TGI (M14 melanoma): 33.4 µM
- TGI (CCRF-CEM leukemia): 68.8 µM
- TGI (SN12C renal): 40.4 µM
- TGI (OVCAR-8 ovarian): 71.8 µM
- TGI (XF 498 CNS): 9.47 µM
- TGI (KM20L2 colon): > 100 µM
- TGI (SNB-78 CNS): > 100 µM
- TGI (DMS 273 small cell lung): 39 µM
- TGI (LXFL 529 NSCLC): 22.4 µM
- TGI (OVCAR-5 ovarian): 54.7 µM
- TGI (RPMI-8226 leukemia): 43.2 µM
- TGI (COLO 205 colon): 24.7 µM
- TGI (ACHN renal): 81.4 µM
- TGI (NCI-H460 lung): 87.8 µM
- TGI (HOP-62 NSCLC): 24.7 µM
- TGI (U251 CNS): 23.1 µM
- TGI (SF-539 CNS): 22.3 µM
- TGI (UACC-257 melanoma): 35.1 µM
- TGI (HCC-2998 colon): 19.5 µM
- TGI (EKVX NSCLC): 77.8 µM
- TGI (UACC-62 melanoma): 22.5 µM
- TGI (SF-268 CNS): 53.6 µM
- TGI (RXF-631 renal): 29.8 µM
- TGI (DMS 114 small cell lung): 35.2 µM
- TGI (CAKI-1 renal): 39.3 µM
- TGI (DLD-1 colon): 28.9 µM
- TGI (RXF 393 renal): 11.6 µM
- TGI (LOX IMVI melanoma): 30.4 µM
- TGI (786-0 renal): 20.3 µM
- TGI (HT29 colon): 64.4 µM
- TGI (HCT-116 colon): 22.2 µM
- TGI (SK-MEL-28 melanoma): 39 µM
- TGI (OVCAR-4 ovarian): 33.7 µM
- TGI (A498 renal): 24.2 µM
- TGI (MALME-3M melanoma): 21.7 µM
- TGI (TK-10 renal): 50.9 µM
- TGI (HCT-15 colon): 41.9 µM
- TGI (HOP-92 NSCLC): 36.8 µM
- TGI (M19-MEL melanoma): 21.9 µM
- TGI (OVCAR-3 ovarian): 50.1 µM
- TGI (MOLT-4 leukemia): 32.2 µM
- TGI (NCI-H226 lung): 8.74 µM
- TGI (NCI-H23 lung): 59.1 µM
- TGI (SNB-75 CNS): 42.9 µM
- TGI (NCI-H522 lung): 43.5 µM
- TGI (K-562 leukemia): > 100 µM
- TGI (SW-620 colon): 24.2 µM
- TGI (SK-MEL-2 melanoma): 29.8 µM
- TGI (A549 NSCLC): 69.2 µM
- TGI (SK-OV-3 ovarian): 54.4 µM
- TGI (UO-31 renal): 35.7 µM
